# Reference: PubChem BioAssay AID1259407 (Chemical Carcinogenesis Research Information System (CCRIS), 2018)
# The source made the active and inactive calls. No rule for the calls is given here.
# System: CCRIS mutagenicity, Ames/micronucleus/aberration tests
# Assay: CCRIS mutagenicity studies
# [1] = Test System: AMES SALMONELLA TYPHIMURIUM, Strain/Indicator: TA98, Metabolic Activation: NONE, Method: PREINCUBATION
# [2] = Test System: AMES SALMONELLA TYPHIMURIUM, Strain/Indicator: TA98, Metabolic Activation: NONE, Method: STANDARD PLATE
# [3] = Test System: AMES SALMONELLA TYPHIMURIUM, Strain/Indicator: TA98, Metabolic Activation: RAT, LIVER, S-9, AROCLOR 1254, Method: PREINCUBATION
# [4] = Test System: AMES SALMONELLA TYPHIMURIUM, Strain/Indicator: TA98, Metabolic Activation: RAT, LIVER, S-9, AROCLOR 1254, Method: STANDARD PLATE
# [5] = Test System: AMES SALMONELLA TYPHIMURIUM, Strain/Indicator: TA100, Metabolic Activation: NONE, Method: STANDARD PLATE
# [6] = Test System: AMES SALMONELLA TYPHIMURIUM, Strain/Indicator: TA100, Metabolic Activation: RAT, LIVER, S-9, AROCLOR 1254, Method: STANDARD PLATE
# [7] = Test System: AMES SALMONELLA TYPHIMURIUM, Strain/Indicator: TA1538, Metabolic Activation: NONE, Method: STANDARD PLATE
smiles,measurement,setting,value
C=CC(=O)OCC,mutagenic call,"End Point: IN VITRO CHROMOSOMAL ABERRATIONS, Test System: CHO-LB CELLS, Metabolic Activation: NONE",inactive; negative
same,mutagenic call,"End Point: IN VITRO CHROMOSOMAL ABERRATIONS, Test System: CHO-LB CELLS, Metabolic Activation: RAT, LIVER, S-9, AROCLOR 1254",active; positive
same,mutagenic call,"Test System: AMES SALMONELLA TYPHIMURIUM, Strain/Indicator: TA98, Metabolic Activation: HAMSTER, LIVER, S-9, AROCLOR 1254, Method: PREINCUBATION",inactive; negative
same,mutagenic call,[1],inactive; negative
same,mutagenic call,[2],inactive; negative
same,mutagenic call,[3],inactive; negative
same,mutagenic call,[4],inactive; negative
same,mutagenic call,"Test System: AMES SALMONELLA TYPHIMURIUM, Strain/Indicator: TA98, Metabolic Activation: RAT, LIVER, S-9, SODIUM PHENOBARBITAL, Method: STANDARD PLATE",inactive; negative
same,mutagenic call,"Test System: AMES SALMONELLA TYPHIMURIUM, Strain/Indicator: TA100, Metabolic Activation: HAMSTER, LIVER, S-9, AROCLOR 1254, Method: PREINCUBATION",inactive; negative
same,mutagenic call,"Test System: AMES SALMONELLA TYPHIMURIUM, Strain/Indicator: TA100, Metabolic Activation: NONE, Method: PREINCUBATION",inactive; negative
same,mutagenic call,[5],inactive; negative
same,mutagenic call,"Test System: AMES SALMONELLA TYPHIMURIUM, Strain/Indicator: TA100, Metabolic Activation: RAT, LIVER, S-9, AROCLOR 1254, Method: PREINCUBATION",inactive; negative
same,mutagenic call,[6],inactive; negative
same,mutagenic call,"Test System: AMES SALMONELLA TYPHIMURIUM, Strain/Indicator: TA100, Metabolic Activation: RAT, LIVER, S-9, SODIUM PHENOBARBITAL, Method: STANDARD PLATE",inactive; negative
same,mutagenic call,"Test System: AMES SALMONELLA TYPHIMURIUM, Strain/Indicator: TA1535, Metabolic Activation: HAMSTER, LIVER, S-9, AROCLOR 1254, Method: PREINCUBATION",inactive; negative
same,mutagenic call,"Test System: AMES SALMONELLA TYPHIMURIUM, Strain/Indicator: TA1535, Metabolic Activation: NONE, Method: PREINCUBATION",inactive; negative
same,mutagenic call,"Test System: AMES SALMONELLA TYPHIMURIUM, Strain/Indicator: TA1535, Metabolic Activation: NONE, Method: STANDARD PLATE",inactive; negative
same,mutagenic call,"Test System: AMES SALMONELLA TYPHIMURIUM, Strain/Indicator: TA1535, Metabolic Activation: RAT, LIVER, S-9, AROCLOR 1254, Method: PREINCUBATION",inactive; negative
same,mutagenic call,"Test System: AMES SALMONELLA TYPHIMURIUM, Strain/Indicator: TA1535, Metabolic Activation: RAT, LIVER, S-9, AROCLOR 1254, Method: STANDARD PLATE",inactive; negative
same,mutagenic call,"Test System: AMES SALMONELLA TYPHIMURIUM, Strain/Indicator: TA1535, Metabolic Activation: RAT, LIVER, S-9, SODIUM PHENOBARBITAL, Method: STANDARD PLATE",inactive; negative
same,mutagenic call,"Test System: AMES SALMONELLA TYPHIMURIUM, Strain/Indicator: TA1537, Metabolic Activation: HAMSTER, LIVER, S-9, AROCLOR 1254, Method: PREINCUBATION",inactive; negative
same,mutagenic call,"Test System: AMES SALMONELLA TYPHIMURIUM, Strain/Indicator: TA1537, Metabolic Activation: NONE, Method: PREINCUBATION",inactive; negative
same,mutagenic call,"Test System: AMES SALMONELLA TYPHIMURIUM, Strain/Indicator: TA1537, Metabolic Activation: NONE, Method: STANDARD PLATE",inactive; negative
same,mutagenic call,"Test System: AMES SALMONELLA TYPHIMURIUM, Strain/Indicator: TA1537, Metabolic Activation: RAT, LIVER, S-9, AROCLOR 1254, Method: PREINCUBATION",inactive; negative
same,mutagenic call,"Test System: AMES SALMONELLA TYPHIMURIUM, Strain/Indicator: TA1537, Metabolic Activation: RAT, LIVER, S-9, AROCLOR 1254, Method: STANDARD PLATE",inactive; negative
same,mutagenic call,"Test System: AMES SALMONELLA TYPHIMURIUM, Strain/Indicator: TA1537, Metabolic Activation: RAT, LIVER, S-9, SODIUM PHENOBARBITAL, Method: STANDARD PLATE",inactive; negative
same,mutagenic call,[7],inactive; negative
same,mutagenic call,"Test System: AMES SALMONELLA TYPHIMURIUM, Strain/Indicator: TA1538, Metabolic Activation: RAT, LIVER, S-9, AROCLOR 1254, Method: STANDARD PLATE",inactive; negative
same,mutagenic call,"Test System: AMES SALMONELLA TYPHIMURIUM, Strain/Indicator: TA1538, Metabolic Activation: RAT, LIVER, S-9, SODIUM PHENOBARBITAL, Method: STANDARD PLATE",inactive; negative
same,mutagenic call,"Test System: Ames Salmonella typhimurium, Strain/Indicator: YG7108pin3ERb5, Metabolic Activation: None, Method: Standard plate",inactive; negative
same,mutagenic call,"Test System: CHINESE HAMSTER OVARY, Strain/Indicator: CHO-K1-BH4 (HGPRT)/6-THIOGUANINE, Metabolic Activation: NONE, Method: SUSPENSION/PLATE",active; positive
same,mutagenic call,"Test System: CHINESE HAMSTER OVARY, Strain/Indicator: CHO-K1-BH4 (HGPRT), Metabolic Activation: NONE, Method: MONOLAYER",active; positive
same,mutagenic call,"Test System: CHINESE HAMSTER OVARY, Strain/Indicator: CHO-K1-BH4 (HGPRT), Metabolic Activation: NONE, Method: SUSPENSION/PLATE",active; positive
same,mutagenic call,"Test System: MOUSE LYMPHOMA, Strain/Indicator: L5178Y (TK+/TK-), Metabolic Activation: RAT, LIVER, S-9, AROCLOR 1254, Method: SUSPENSION/PLATE",active; positive. reevaluation of results: positive
same,mutagenic call,"Test System: MOUSE LYMPHOMA, Strain/Indicator: L5178Y (TK+/TK-), Metabolic Activation: RAT, LIVER, S-9, AROCLOR, Method: SUSPENSION/PLATE",active; positive
CCN(CC)C(=S)S[C@@H]1O[C@H](CO)[C@@H](O)[C@H](O)[C@H]1O,mutagenic call,[2],inactive; negative
same,mutagenic call,[4],inactive; negative
same,mutagenic call,[5],inactive; negative
same,mutagenic call,[6],inactive; negative
CC(=O)[C@]1(O)Cc2c(O)c3c(c(O)c2[C@@H](O[C@H]2C[C@H](N)[C@H](O)[C@H](C)O2)C1)C(=O)c1c(O)cccc1C3=O,mutagenic call,"Test System: AMES SALMONELLA TYPHIMURIUM, Strain/Indicator: GW257, Metabolic Activation: NONE, Method: STANDARD PLATE",active; positive
same,mutagenic call,"Test System: AMES SALMONELLA TYPHIMURIUM, Strain/Indicator: TA97, Metabolic Activation: NONE, Method: STANDARD PLATE",active; positive
same,mutagenic call,[1],active; positive
same,mutagenic call,[2],active; positive
same,mutagenic call,[4],active; positive
same,mutagenic call,[5],active; positive
same,mutagenic call,"Test System: AMES SALMONELLA TYPHIMURIUM, Strain/Indicator: TA104, Metabolic Activation: NONE, Method: STANDARD PLATE",inactive; negative
same,mutagenic call,[7],active; positive
same,mutagenic call,"Test System: AMES SALMONELLA TYPHIMURIUM, Strain/Indicator: TA2637, Metabolic Activation: NONE, Method: STANDARD PLATE",active; positive
O=C(Nc1ccc([N+](=O)[O-])cc1Cl)c1cc(Cl)ccc1O,mutagenic call,"Test System: AMES SALMONELLA TYPHIMURIUM, Strain/Indicator: TA98(NR), Metabolic Activation: RAT, LIVER, S-9, AROCLOR 1254, Method: STANDARD PLATE",inactive; negative
same,mutagenic call,[1],inactive; negative
same,mutagenic call,[3],active; positive
same,mutagenic call,"Test System: AMES SALMONELLA TYPHIMURIUM, Strain/Indicator: TA1538, Metabolic Activation: NONE, Method: PREINCUBATION",inactive; negative
same,mutagenic call,"Test System: AMES SALMONELLA TYPHIMURIUM, Strain/Indicator: TA1538, Metabolic Activation: RAT, LIVER, S-9, AROCLOR 1254, Method: PREINCUBATION",active; positive
same,mutagenic call,"Test System: AMES SALMONELLA TYPHIMURIUM, Strain/Indicator: TA1978, Metabolic Activation: NONE, Method: PREINCUBATION",inactive; negative
same,mutagenic call,"Test System: AMES SALMONELLA TYPHIMURIUM, Strain/Indicator: TA1978, Metabolic Activation: RAT, LIVER, S-9, AROCLOR 1254, Method: PREINCUBATION",inactive; negative
same,mutagenic call,"Test System: AMES SALMONELLA TYPHIMURIUM, Strain/Indicator: UTH8413, Metabolic Activation: NONE, Method: PREINCUBATION",inactive; negative
same,mutagenic call,"Test System: AMES SALMONELLA TYPHIMURIUM, Strain/Indicator: UTH8413, Metabolic Activation: RAT, LIVER, S-9, AROCLOR 1254, Method: PREINCUBATION",inactive; negative
same,mutagenic call,"Test System: AMES SALMONELLA TYPHIMURIUM, Strain/Indicator: YG1020, Metabolic Activation: RAT, LIVER, S-9, AROCLOR 1254, Method: STANDARD PLATE",active; positive
same,mutagenic call,"Test System: AMES SALMONELLA TYPHIMURIUM, Strain/Indicator: YG1021, Metabolic Activation: RAT,LIVER, S-9, AROCLOR 1254, Method: STANDARD PLATE",active; positive
same,mutagenic call,"Test System: AMES SALMONELLA TYPHIMURIUM, Strain/Indicator: YG1024, Metabolic Activation: RAT, LIVER, S-9, AROCLOR 1254, Method: STANDARD PLATE",active; positive
